Reference: ChEMBL document CHEMBL1177756, “Design and synthesis of 1,4,5,6-tetrahydropyrrolo[3,4-c]pyrazoles and pyrazolo[3,4-b]pyridines for Aurora-A kinase inhibitors” (Bioorg Med Chem Lett, 2010)

Key:
Format in all cases: functional, cell-based
HCT-116 = experiment: Cytotoxicity against human HCT116 cells after 48 hrs by MTT assay; settings: HCT-116, 48 h
A549 = experiment: Cytotoxicity against human A549 cells after 48 hrs by MTT assay; settings: A549, 48 h
A2780 = experiment: Cytotoxicity against human A2780 cells after 48 hrs by MTT assay; settings: A2780, 48 h

Row | SMILES | IC50 (HCT-116) | IC50 (A549) | IC50 (A2780)
1 | Cc1ccc(C(=O)Nc2n[nH]c3c2CN(C(=O)c2ccccn2)C3)cc1 | > 200 µM | > 200 µM | > 200 µM
2 | CC(=O)N1Cc2[nH]nc(NC(=O)c3ccc4ccccc4c3)c2C1 | > 200 µM | > 200 µM | > 200 µM
3 | Cc1ccccc1C(=O)Nc1n[nH]c2ncc(Br)cc12 | 51.5 µM | > 200 µM | > 200 µM
4 | COc1cc(OC)cc(C(=O)Nc2n[nH]c3c2CN(C(=O)c2ccccn2)C3)c1 | 236 µM | > 200 µM | > 200 µM
5 | O=C(Nc1n[nH]c2c1CN(C(=O)[C@@H](O)c1ccccc1)C2)c1ccc2c(c1)OCO2 | 135 µM | 84 µM | > 200 µM
6 | CO[C@H](C(=O)N1Cc2[nH]nc(NC(=O)c3ccc4c(c3)OCO4)c2C1)c1ccccc1 | > 200 µM | > 200 µM | > 200 µM
7 | O=C(Nc1n[nH]c2c1CN(C(=O)c1ccccn1)C2)c1ccc2c(c1)OCO2 | > 200 µM | 118 µM | > 200 µM
8 | O=C(Nc1n[nH]c2ncc(Br)cc12)c1cc(Cl)cc(Cl)c1 | 49.2 µM | > 200 µM | > 200 µM
9 | COc1cc(OC)cc(C(=O)Nc2n[nH]c3ncc(Br)cc23)c1 | 19.3 µM | 53.7 µM | 37.9 µM
10 | CC(=O)c1ncccc1N1Cc2[nH]nc(NC(=O)c3ccc4c(c3)OCO4)c2C1 | > 200 µM | > 200 µM | > 200 µM
11 | CO[C@H](C(=O)N1Cc2[nH]nc(NC(=O)c3ccc4ccccc4c3)c2C1)c1ccccc1 | 38 µM | 16 µM | 23 µM
12 | O=C(Nc1n[nH]c2ncc(Br)cc12)c1ccc(C(F)(F)F)cc1 | 21.9 µM | > 200 µM | > 200 µM
13 | O=C(Nc1n[nH]c2ncc(Br)cc12)c1ccc(F)cc1 | 44.1 µM | > 200 µM | 50 µM
14 | COc1ccc(C(=O)Nc2n[nH]c3ncc(Br)cc23)cc1 | 24.9 µM | > 200 µM | > 200 µM
15 | COc1ccccc1C(=O)Nc1n[nH]c2ncc(Br)cc12 | 15.6 µM | > 200 µM | 27 µM
16 | O=C(Nc1n[nH]c2ncc(Br)cc12)c1ccccc1C(F)(F)F | 40.3 µM | 75.1 µM | > 200 µM
17 | Cc1ccc(C(=O)Nc2n[nH]c3c2CN(C(=O)[C@@H](O)c2ccccc2)C3)cc1 | 13 µM | 42 µM | 82 µM
18 | CO[C@H](C(=O)N1Cc2[nH]nc(NC(=O)c3ccco3)c2C1)c1ccccc1 | > 200 µM | > 200 µM | > 200 µM
19 | Cc1ccc(C(=O)N2Cc3[nH]nc(NC(=O)c4ccco4)c3C2)cc1 | > 200 µM | > 200 µM | > 200 µM
20 | CC(=O)O[C@H](C(=O)N1Cc2[nH]nc(NC(=O)c3cc4c(c(OCc5ccccc5)c3)OCO4)c2C1)c1ccccc1 | > 200 µM | > 200 µM | > 200 µM
21 | O=C(Nc1n[nH]c2c1CN(C(=O)[C@@H](O)c1ccccc1)C2)c1ccco1 | 4 µM | 25 µM | 35 µM

Row | SMILES | IC50 (HCT-116) | IC50 (A549) | IC50 (A2780)
22 | O=C(Nc1n[nH]c2ncc(Br)cc12)c1ccccc1Cl | 32.3 µM | > 200 µM | 46.7 µM
23 | COc1ccc(C(=O)Nc2n[nH]c3c2CN(C(=O)c2ccccn2)C3)cc1 | > 200 µM | > 200 µM | > 200 µM
24 | COc1cc(OC)cc(C(=O)Nc2n[nH]c3c2CN(C(=O)[C@@H](OC)c2ccccc2)C3)c1 | 103 µM | 99 µM | > 200 µM
25 | Cc1ccc(C(=O)Nc2n[nH]c3ncc(Br)cc23)cc1 | 39.8 µM | > 200 µM | > 200 µM
26 | Cc1cccc(C(=O)Nc2n[nH]c3ncc(Br)cc23)c1 | 25.5 µM | > 200 µM | 49.9 µM
27 | O=C(Nc1n[nH]c2ncc(Br)cc12)c1ccc(Cl)cc1 | 34.7 µM | 51.4 µM | 51.6 µM
28 | O=C(Nc1n[nH]c2ncc(Br)cc12)c1ccco1 | 43.5 µM | 61.9 µM | 42 µM
29 | O=C(Cc1ccc(Br)cc1)Nc1n[nH]c2ncc(Br)cc12 | 31.7 µM | 43.1 µM | 22.8 µM
30 | COc1cc(OC)cc(C(=O)Nc2n[nH]c3c2CN(C(=O)[C@@H](O)c2ccccc2)C3)c1 | 143 µM | 76 µM | > 200 µM
31 | COc1cc(OC)cc(C(=O)Nc2n[nH]c3c2CN(c2cccnc2C(C)=O)C3)c1 | 107 µM | 161 µM | > 200 µM
32 | CC(=O)c1ncccc1N1Cc2[nH]nc(NC(=O)c3ccccc3)c2C1 | 168 µM | 175 µM | > 200 µM
33 | CO[C@H](C(=O)N1Cc2[nH]nc(NC(=O)c3cc4c(c(OCc5ccccc5)c3)OCO4)c2C1)c1ccccc1 | > 200 µM | > 200 µM | > 200 µM
34 | Cc1cccnc1C(=O)Nc1n[nH]c2ncc(Br)cc12 | 23 µM | > 200 µM | > 200 µM
35 | O=C(Nc1n[nH]c2ncc(Br)cc12)c1ccccn1 | 14.3 µM | 45.2 µM | 46.5 µM
36 | CO[C@H](C(=O)N1Cc2[nH]nc(NC(=O)c3ccccc3)c2C1)c1ccccc1 | 26 µM | > 200 µM | > 200 µM
37 | O=C(Nc1n[nH]c2c1CN(C(=O)c1ccco1)C2)c1ccc2ccccc2c1 | 45 µM | 34 µM | 54 µM
38 | Cc1ccc(C(=O)N2Cc3[nH]nc(NC(=O)c4ccc5ccccc5c4)c3C2)cc1 | > 200 µM | > 200 µM | > 200 µM
39 | O=C(Nc1n[nH]c2c1CN(C(=O)c1ccccn1)C2)c1cc2c(c(OCc3ccccc3)c1)OCO2 | 104 µM | > 200 µM | > 200 µM
40 | COc1ccc(C(=O)Nc2n[nH]c3c2CN(C(=O)[C@@H](OC)c2ccccc2)C3)cc1 | 207 µM | 72 µM | > 200 µM
41 | CO[C@H](C(=O)N1Cc2[nH]nc(NC(=O)c3ccc(N4CCN(C)CC4)cc3)c2C1)c1ccccc1 | 13 µM | 43 µM | 11 µM
